For data set [1], the target named is T1, Ndi1 (Saccharomyces cerevisiae, UniProt P32340).
T1 construct: The mature Ndi1, which lacks a mitochondrial targeting; (His)10; made in house; host or cells: E. coli BL21(DE3)pLysS, plasmid pET16b(NDI1-m)
T1 sequence (P32340 27-513): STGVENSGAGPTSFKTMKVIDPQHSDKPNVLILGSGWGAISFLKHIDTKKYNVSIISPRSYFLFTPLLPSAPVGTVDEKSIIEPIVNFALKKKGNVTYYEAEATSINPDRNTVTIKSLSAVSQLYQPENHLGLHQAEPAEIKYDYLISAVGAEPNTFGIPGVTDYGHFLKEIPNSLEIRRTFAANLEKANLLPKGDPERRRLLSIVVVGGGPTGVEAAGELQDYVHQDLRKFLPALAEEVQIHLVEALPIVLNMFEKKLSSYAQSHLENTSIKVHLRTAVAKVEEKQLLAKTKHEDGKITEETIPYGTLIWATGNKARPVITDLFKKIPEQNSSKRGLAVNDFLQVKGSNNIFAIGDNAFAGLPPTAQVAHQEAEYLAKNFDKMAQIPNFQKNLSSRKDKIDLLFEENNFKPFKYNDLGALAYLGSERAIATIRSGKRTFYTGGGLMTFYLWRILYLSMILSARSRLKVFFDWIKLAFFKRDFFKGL
Description: Inhibition of NADH-ubiquinone-1 oxidoreductase activity of the purified Ndi1. The data set is classed as biochemical. The note with it: for IC50: NADH-ubiquinone-1 oxidoreductase activity, purified recombinant Ndi1, 100 µM NADH, pH 6.0, mean ± S.E.M of three independent experiments; for Inhibition mode: inhibition mode for ubiquinone-1, from intersection point in Lineweaver-Burk plots, 100 µM NADH; for Ki: non-linear regression of mixed type inhibition (GraphPad Prism 6), versus ubiquinone-1; for Ki / α (α > 0): mean ± S.D.; for α (α > 0): α of mixed model inhibition fit (αKi = dissociation constant of ternary enzyme-substrate-inhibitor complex). Here is the method:
NADH-ubiquinone oxidoreductase activity was measured as described previously. In brief, the reaction was started by adding 100 µM NADH to the enzyme mixture containing 10 ng/mL Ndi1, 50 mM sodium phosphate (pH 6.0) and 1 mM EDTA, which was pre-incubated with various concentrations of ubiquinone-1 for 1 min. […] The concentrations of inhibitors required to obtain the half-maximal inhibition (IC50) were estimated by non-linear regression dose-response curves. The inhibition mode of each inhibitor for ubiquinone-1 was determined by the intersection point in double-reciprocal plots (Fig. 2B–E). To objectively evaluate the inhibition mode, the data of the inhibition kinetics were fitted to the Eq.
This equation provides two dissociation constants, one for the binary enzyme-inhibitor complex (Ki), the other for the ternary enzyme-substrate-inhibitor complex (αKi).

Data set [2] has as its target T1, Ndi1. Further details: method as in PMID 17200125. The note with it: inhibition of Ndi1; cited from earlier work.
For data set [3], the system named is wild-type and mutant Ndi1. In words: Kinetic parameters of the oxidoreductase activity of wild-type and mutant Ndi1 for ubiquinone-1. The class given is biochemical, Saccharomyces cerevisiae. To be noted: NADH fixed at 100 µM; for Km: apparent Km for ubiquinone-1 (2.4–60 µM); for Vmax: ubiquinone-1 as substrate (2.4–60 µM). Here is the method:
This unique structure appears to be related to the competitive nature of the inhibition of Ndi1 oxidoreductase activity by stigmatellin. It is therefore hypothesized that L444, I459, R460, and S461, which interact with stigmatellin at the STG-1a site, are also involved in the binding of the substrate ubiquinone (Fig. 5). This hypothesis was evaluated by examining the effects of mutations of the proximal L444 and I459 on the kinetics of the enzymatic reaction of Ndi1. The effect of the mutation of S484, which specifically interacts with stigmatellin at the STG-1b site, was examined as a control. Furthermore, the effects of mutations of W63, P92, A393, Q394, H397, L447, Y482, M485, and L487, which interact with the aromatic head group of stigmatellin at the STG-1a and STG-1b sites, were also examined. Moreover, to investigate the functional role of the STG-2 site in ubiquinone binding, a mutation was also introduced to R479.
NADH-ubiquinone oxidoreductase activity was measured as described previously. In brief, the reaction was started by adding 100 µM NADH to the enzyme mixture containing 10 ng/mL Ndi1, 50 mM sodium phosphate (pH 6.0) and 1 mM EDTA, which was pre-incubated with various concentrations of ubiquinone-1 for 1 min. The decrease in 340 nm absorbance was measured as an indication of the oxidation of NADH (ε = 6.22 mM^−1 cm^−1) with a Shimadzu UV2000 spectrophotometer (Kyoto, Japan). The enzymatic activity obtained with 100 µM NADH and 60 µM ubiquinone-1 in the absence of any inhibitors (100% activity) catalyzed the oxidation of 1,890 μmol NADH/min/mg Ndi1. The concentrations of inhibitors required to obtain the half-maximal inhibition (IC50) were estimated by non-linear regression dose-response curves. The inhibition mode of each inhibitor for ubiquinone-1 was determined by the intersection point in double-reciprocal plots (Fig. 2B–E). To objectively evaluate the inhibition mode, the data of the inhibition kinetics were fitted to the Eq. (1) of mixed model inhibition in the Prism6 software program (GraphPad Software, Inc., La Jolla, CA).1 V=Vmax[S]/[S](1+[I]/αKi)+Km(1+[I]/Ki) […]
To determine the kinetic parameters of wild-type and mutant enzymes for ubiquinone-1, the NADH oxidation rates were measured in a fixed concentration of NADH (100 µM) and different concentrations of ubiquinone-1 (2.4–60 µM). Apparent Km and Vmax values were obtained by fitting a data set of initial velocity versus substrate concentration to the Michaelis-Menten model equation in the Prism6 software program.
Site-directed mutagenesis. The amino acid replacements of Ndi1 were basically performed with PrimeSTAR mutagenesis basal kit (Takara, Japan) using pET16b(NDI1-m) (2) and a synthetic oligonucleotide primer set (Table S2). The mutagenesis of H397 was performed with a QuikChange II XL site-directed mutagenesis kit (Stratagene, CA). Each mutation was confirmed through DNA sequencing (DNA sequencing service, Eurofins). The purification procedure of wild-type and mutant enzymes, used for the determination of the kinetic parameters (Table 2), was basically the same as the above procedure, without the replacement of the detergent from Triton X -100 with DDM. After washing the enzyme with buffer A containing 0.1% Triton X-100 and 15 mM histidine, 0.02% Triton X-100 was added to all buffer as a substitute for DDM. With the exception of 5 mutants containing L444D, I459A, […]
yield of the wild-type enzyme. […]

Like-named read-outs stand apart in the source and are kept apart here.

For the molecule `C/C=C(C)/C=C/C=C/[C@H](OC)[C@@H](C)[C@@H](OC)[C@@H](C)CCc1oc2c(O)c(OC)cc(OC)c2c(=O)c1C` [Stigmatellin, stigmatellin], in data set [1], the 50% inhibitory concentration (IC50) came out at 107 ± 21 nM, the Inhibition mode result is recorded as “competitive”, the inhibitory constant (Ki) was 93.9 ± 30.4 nM and the “α (α > 0)” value is given as ~6.33×10^20. In addition, in data set [1] (listed as stigmatellin), the “α (α > 0)” value was “close to infinity”.
Consider `CCCCCCCCCCCCc1cc(=O)c2ccccc2n1O` [AC0-12, 1-hydroxy-2-dodecyl-4(1 H) quinolone], for which, in data set [1], the IC50 worked out at 115 ± 18 nM, the Inhibition mode result is recorded as “mixed”, the inhibitory constant (Ki) is 14 ± 1.9 nM and the “α (α > 0)” value is reported as 13.0±11.7.
Take `CCCCCCCCCCCc1cc(=O)c2ccccc2n1O` [AC0-11, 1-hydroxy-2-undecyl-4(1 H) quinolone]: the IC50 in data set [2] was 200 nM.
Regarding `CC(/C=C/[C@@]1(C)[C@H](C)CCC(=O)[C@@H]1C)=C\Cc1c(O)c(Cl)c(C)c(C=O)c1O` [Ascochlorin, ascochlorin], in data set [1], the IC50 stood at 955 ± 139 nM, the Inhibition mode entry is given as “mixed”, affinity was put at a Ki of 728 ± 191 nM and the “α (α > 0)” value came to 2.64±1.87.

B1: Wild type: wild-type recombinant Saccharomyces cerevisiae Ndi1 (NADH dehydrogenase) (protein, UniProt P32340 27-513, looked up)
Rotenone-insensitive …: STGVENSGAGPTSFKTMKVIDPQHSDKPNVLILGSGWGAISFLKHIDTKKYNVSIISPRSYFLFTPLLPSAPVGTVDEKSIIEPIVNFALKKKGNVTYYEAEATSINPDRNTVTIKSLSAVSQLYQPENHLGLHQAEPAEIKYDYLISAVGAEPNTFGIPGVTDYGHFLKEIPNSLEIRRTFAANLEKANLLPKGDPERRRLLSIVVVGGGPTGVEAAGELQDYVHQDLRKFLPALAEEVQIHLVEALPIVLNMFEKKLSSYAQSHLENTSIKVHLRTAVAKVEEKQLLAKTKHEDGKITEETIPYGTLIWATGNKARPVITDLFKKIPEQNSSKRGLAVNDFLQVKGSNNIFAIGDNAFAGLPPTAQVAHQEAEYLAKNFDKMAQIPNFQKNLSSRKDKIDLLFEENNFKPFKYNDLGALAYLGSERAIATIRSGKRTFYTGGGLMTFYLWRILYLSMILSARSRLKVFFDWIKLAFFKRDFFKGL
As for B1, in data set [3], the Michaelis constant (Km) is 22.7 ± 1 µM and the maximum rate (Vmax) is 1060 ± 6.1 µmol/min/mg.

B2: L444N: recombinant Ndi1 mutant L444N (protein, UniProt P32340 27-513, looked up, variant L444N)
Rotenone-insensitive …: STGVENSGAGPTSFKTMKVIDPQHSDKPNVLILGSGWGAISFLKHIDTKKYNVSIISPRSYFLFTPLLPSAPVGTVDEKSIIEPIVNFALKKKGNVTYYEAEATSINPDRNTVTIKSLSAVSQLYQPENHLGLHQAEPAEIKYDYLISAVGAEPNTFGIPGVTDYGHFLKEIPNSLEIRRTFAANLEKANLLPKGDPERRRLLSIVVVGGGPTGVEAAGELQDYVHQDLRKFLPALAEEVQIHLVEALPIVLNMFEKKLSSYAQSHLENTSIKVHLRTAVAKVEEKQLLAKTKHEDGKITEETIPYGTLIWATGNKARPVITDLFKKIPEQNSSKRGLAVNDFLQVKGSNNIFAIGDNAFAGLPPTAQVAHQEAEYLAKNFDKMAQIPNFQKNLSSRKDKIDLLFEENNFKPFKYNDNGALAYLGSERAIATIRSGKRTFYTGGGLMTFYLWRILYLSMILSARSRLKVFFDWIKLAFFKRDFFKGL
B2: in data set [3], the Km stood at 23.9 ± 2 µM and the Vmax was determined as 1333 ± 14 µmol/min/mg.

B3: I459N: recombinant Ndi1 mutant I459N (protein, UniProt P32340 27-513, looked up, variant I459N)
Rotenone-insensitive …: STGVENSGAGPTSFKTMKVIDPQHSDKPNVLILGSGWGAISFLKHIDTKKYNVSIISPRSYFLFTPLLPSAPVGTVDEKSIIEPIVNFALKKKGNVTYYEAEATSINPDRNTVTIKSLSAVSQLYQPENHLGLHQAEPAEIKYDYLISAVGAEPNTFGIPGVTDYGHFLKEIPNSLEIRRTFAANLEKANLLPKGDPERRRLLSIVVVGGGPTGVEAAGELQDYVHQDLRKFLPALAEEVQIHLVEALPIVLNMFEKKLSSYAQSHLENTSIKVHLRTAVAKVEEKQLLAKTKHEDGKITEETIPYGTLIWATGNKARPVITDLFKKIPEQNSSKRGLAVNDFLQVKGSNNIFAIGDNAFAGLPPTAQVAHQEAEYLAKNFDKMAQIPNFQKNLSSRKDKIDLLFEENNFKPFKYNDLGALAYLGSERAIATNRSGKRTFYTGGGLMTFYLWRILYLSMILSARSRLKVFFDWIKLAFFKRDFFKGL
In the case of B3, in data set [3], the Michaelis constant (Km) amounted to 30.3 ± 2 µM and the Vmax was 11.1 ± 0.096 µmol/min/mg.

The IC50 is the concentration that inhibits the measured activity by half. A word on the Ki: it is a dissociation constant, usually derived from enzyme kinetics or from competition with a known ligand. Lower therefore signals tighter binding. A word on the Km: it is the substrate concentration at which the rate is half of its maximum. Usually Vmax stands for the rate approached at saturating substrate.

Values taken from PMC5799168 (Scientific Reports, 2018).
